Patent US4156011A, “Sulphur- and oxygen-containing diaryl compounds” (priority 1974, dated 1979)
Structures can show the parent of a compound that is named as a salt. Where two headings read alike, the source gives them in different places.

Columns and labels:
[1] = tested on: platelets (aggregation induced by collagen); experiment: Anti-aggregation action, platelet aggregation induced by collagen; format: in vivo, male Wistar rats; settings: 4 days; for change in aggregation, collagen, latency period / change in aggregation, collagen, speed / change in aggregation, collagen, transmission: oral 100 mg/kg, collagen/acetic acid diluted 1/10
Method: (a) by collagen: the inhibition of aggregation (which corresponds to the % transmission), the latency period and the speed; and
(§1) In Table IV which follows have been shown the results relating to the anti-aggregation action of some products on the blood of male Wistar rats, the aggregating agents used being collagen/acetic acid diluted 1/10, and ADP at 1 μM.

[2] = tested on: platelets (aggregation induced by ADP); experiment: Anti-aggregation action, platelet aggregation induced by ADP; format: in vivo, male Wistar rats; settings: oral 100 mg/kg, 4 days; for inhibition at 100 mg/kg: Rattus norvegicus, Platelet, 96 h, read-out: inhibition of transmission (ADP test); for change in aggregation, ADP transmission: ADP at 1 μM
Method: (b) by ADP: the inhibition of aggregation (that is to say the % transmission).
as §1

[3] = Reduction of lipids and cholesterol in rats treated orally; format: in vivo; settings: Rattus norvegicus
Method: Some of the other results of the pharmacological tests which were carried out on rats are summarised below.
Rats given a normal diet are treated orally at a daily dose of 50 mg/kg for 3 and 5 days. A reduction of about 20% in the concentration of cholesterol and lipids in the plasma is observed.

[4] = as above; format: in vivo; settings: for inhibition in vivo at 10 mg/kg / inhibition in vivo at 20 mg/kg: Rattus norvegicus, 72 h, 3 days; for inhibition in vivo at 10 mg/kg: oral 10 mg/kg; for inhibition in vivo at 20 mg/kg: oral 20 mg/kg
[5] = tested on: blood platelet aggregation; experiment: Anti-aggregation action in rats (graded / in words); format: in vivo; design: key to Anti-aggregation action: -: zero activity; +: significant activity; ++: intense activity; +++: very intense activity; settings: for anti-aggregation activity (in words): results of Table IV
[6] = Solubility of the isolated product; settings: water
[7] = Hypo-lipidaemic and hypo-cholesterolaemic action in rats on hyper-lipid diet; format: in vivo, Wistar rats; settings: Rattus norvegicus, 0.1 g/kg in rats
From the text: A. a batch of rats receiving a normal diet (percentage inhibition=100%);
B. a batch of rats receiving a hyper-lipid diet (percentage inhibition=0%);
C. a batch of rats receiving the hyper-lipid diet B with a daily dose, of 0.1 g/kg, of a reference product having a lipidaemia-normalising action, namely Lipavlon [ethyl 2-(p-chlorophenoxy)-2-methyl-propionate];
D. a batch of rats receiving the hyper-lipid diet B with a daily dose, of 0.1 g/kg, of another product having a lipidaemia-normalising action, namely LL 1558 [1,10-bis-(2-hydroxyethyl-thio)-decane]; and
E. a batch of rats receiving the hyper-lipid diet B with a daily dose of 10 mg/kg and 25 mg/kg, where necessary, higher doses.
In Table III which follows have been shown the results relating to CRL 40,201 (the product of Example 17) and CRL 40,202 (the product of Example 18) in respect of the hypo-lipidaemic action and hypo-cholesterolaemic action.

Clinical tests in man = format: in vivo
Method: The clinical tests have made it possible to confirm the pharmacological tests. Thus, in man, CRL 40,293 (Example 23) in the form of gelatine-coated pills containing 400 mg of active ingredient administered at the rate of 2 such pills twice daily has given good results in the treatment of circulatory complaints and especially of lipid disturbances.
CRL 40,386 (Example 8) has been used in man for the treatment of hyperlipidaemia in the form of gelatine-coated pills each containing 300 mg of active ingredient at the rate of 2 to 6 such pills per day.

[8] = Hypo-lipidaemic and hypo-cholesterolaemic action of other products (Table V); format: in vivo, rats; settings: for change in vivo at 50 mg/kg / change in vivo at 100 mg/kg / change in vivo at 200 mg/kg: Rattus norvegicus; for change in vivo at 50 mg/kg: 72 h, oral 50 mg/kg for 3 days; for change in vivo at 100 mg/kg / change in vivo at 200 mg/kg: 96 h; for change in vivo at 100 mg/kg: oral 100 mg/kg for 4 days; for change in vivo at 200 mg/kg: oral 200 mg/kg for 4 days
From the text: The results of the anti-aggregation test and of the hypo-[…] action and hypo-cholesterolaemic action tests of other products of the invention have been […] Table V which follows, the code used being the following (for each dose shown): […]

in vivo = settings: mouse, oral, female mice
Method: (§2) In female mice, the LD-50 on oral administration is 2,050 mg/kg. In male rats, the LD-0, on oral administration, is greater than 600 mg/kg.

[9] = format: in vivo; settings: oral, male rats
Method: as §2

stomach and duodenum = experiment: Gastric tolerance in fasting rats; format: in vivo
From the text: It has furthermore been observed that CRL 40,293 is a well-tolerated substance.

[10] = tested on: cardio-vascular parameters; experiment: Cardio-vascular activity in anaesthetised dogs; format: in vivo; settings: intraduodenal 100 then 200 mg/kg
Method: Three anaesthetised dogs are used for this study. The product is administered intraduodenally as a gum suspension.
Two dogs with the thorax closed and respiring spontaneously are given CRL 40,293 at a dose of 100 mg/kg followed by 200 mg/kg, this second dose being administered 1 hour 30 minutes to 2 hours after the first.
One dog with the thorax opened is given 100 mg/kg, followed after 1 hour by 200 mg/kg, of CRL 40,293.
In these animals the effects of injections of noradrenalin, acetylcholine, tyramine, DMPP, histamine and serotonine were unchanged and the same is true of the effects of occlusion of the carotids and of stimulation of the central end and peripheral end of the vagus.

[11] = read-out: reduction in the cholesterol
[12] = read-out: reduction in the lipids
[13] = read-out: Total lipids (change)
[14] = tablet of 250 to 500 mg, to prevent cardiovascular accidents, especially coronary insufficiency

CC(COC(=O)C(C)Oc1ccc(Sc2ccc(Cl)cc2)cc1)SCCCCCCCCCCSC(C)COC(=O)C(C)Oc1ccc(Sc2ccc(Cl)cc2)cc1 (racemic) [CRL 40,391, (±)-2,15-Dimethyl-3,14-dithia-1,16-hexadecyl di-(±)-{2-[p-(p-chlorophenylthio)-phenoxy]-propionate}]
latency time (collagen test) ([1]; 100 mg/kg, unit not given): +40 | speed (collagen test) ([1]; 100 mg/kg, unit not given): -32 | inhibition at 100 mg/kg [2]: 19% | inhibition in vivo at 50 mg/kg ([3]; 72 h, oral 50 mg/kg, 3 days, read-out: reduction in the cholesterol): 42% | inhibition in vivo at 50 mg/kg ([3]; 72 h, oral 50 mg/kg, 3 days, read-out: reduction in the lipids): 29% | inhibition in vivo at 10 mg/kg [4, 11]: 32% | inhibition in vivo at 10 mg/kg [4, 12]: 17% | inhibition in vivo at 20 mg/kg [4, 11]: 43% | inhibition in vivo at 20 mg/kg [4, 12]: 21%

CC(C)(CNCCO)Oc1ccc(Sc2ccc(Cl)cc2)cc1 [CRL 40,238, N-Hydroxyethyl-4-(4-chlorophenylthio)-phenoxy-isobutylamine hydrochloride]
change in aggregation, collagen, latency period [1]: +18% | change in aggregation, collagen, speed [1]: -52% | change in aggregation, collagen, transmission [1]: -47% | change in aggregation, ADP transmission [2]: -46% | anti-aggregation activity (in words) [5]: the most interesting amongst them | solubility in water (in words) [6]: insoluble in water

O=C(O)CSc1ccc(Oc2ccc(Cl)cc2)cc1 [CRL 40,271, 4-(4-Chlorophenoxy)-phenylthioacetic acid]
inhibition at 100 mg/kg ([7]; read-out: cholesterol inhibition): 54% | inhibition at 100 mg/kg ([7]; read-out: total lipids inhibition): 35% | change in aggregation, collagen, latency period [1]: +15% | change in aggregation, collagen, speed [1]: -60% | change in aggregation, collagen, transmission [1]: -25% | change in aggregation, ADP transmission [2]: -28% | anti-aggregation activity (in words) [5]: the most interesting amongst them | tolerance in man (Clinical tests in man; gelatine-coated pill of 200 to 400 mg, 1 to 2 per day): well tolerated | treatment of circulatory complaints due to hyperlipidaemias (Clinical tests in man; man, gelatine-coated pill of 200 to 400 mg, 1 to 2 per day): efficient

O=C(CSc1ccc(Oc2ccc(Cl)cc2)cc1)NCCO [CRL 40,272, N-Hydroxyethyl-4-(4-chlorophenoxy)-phenylthioacetamide]
change in aggregation, collagen, latency period [1]: +16% | change in aggregation, collagen, transmission [1]: 0% | change in aggregation, ADP transmission [2]: -20%

OCCNCCSc1ccc(Oc2ccc(Cl)cc2)cc1 [CRL 40,274, N-Hydroxyethyl-2-[4-(4-chlorophenoxy)phenylthio]-ethylamine]
change in aggregation, collagen, speed [1]: 0% | change in aggregation, ADP transmission [2]: -20% | solubility in water (in words) [6]: insoluble in water

CC(C)(CO)Sc1ccc(Oc2ccc(Cl)cc2)cc1 [CRL 40,276, 4-(4-Chlorophenoxy)-phenylthio-isobutanol]
change in aggregation, collagen, latency period [1]: +25% | change in aggregation, collagen, speed [1]: -13% | change in aggregation, collagen, transmission [1]: -31% | change in aggregation, ADP transmission [2]: -20%

OCCOc1ccc(Oc2ccc(Cl)cc2)cc1 [CRL 40,293, 2-[4-(4-Chlorophenoxy)-phenoxy]ethanol]
Anti-aggregation action ([5]; 100 mg/kg per day for 3 days): +++ | Anti-aggregation action ([5]; oral 50 mg/kg for 3 days): ++ | change in vivo at 50 mg/kg ([8]; read-out: Cholesterol (change)): -40% | change in vivo at 50 mg/kg [8, 13]: -40% | hypo-lipidaemic and hypocholesterolaemic activity (in words) ([8]; oral 50 mg/kg): good hypo-lipidaemic and hypocholesterolaemic activity | LD50 (in vivo): 2050 mg/kg | LD-0 [9]: greater than 600 mg/kg | ulceration or inflammation of the stomach and of the duodenum (stomach and duodenum; fasting rats, 1 g/kg through a probang, 8 hours after administration): no ulceration or inflammation of the stomach and of the duodenum is observed | tolerance (in words) (stomach and duodenum; rat, in vivo): well-tolerated | change of parameters: arterial pressure, pulse rate, left intra-ventricular pressure, dp/dt, vertebral and femoral arterial flow rates, respiration ([10]; closed thorax, 2 hours' observation): None of the parameters measured changed | effects of noradrenalin, acetylcholine, tyramine, DMPP, histamine and serotonine injections, carotid occlusion and vagus stimulation ([10]; dogs): unchanged | change of parameters: arterial pressure, pulse rate, left intraventricular pressure, dp/dt, aorta flow rate, work of left ventricle, coronary arterial flow rate ([10]; opened thorax, 2 hours' observation): None of the parameters measured changed | treatment of circulatory complaints and especially of lipid disturbances (Clinical tests in man; man, gelatine-coated pills of 400 mg, 2 pills twice daily): good results | decrease in cholesterol ([4]; daily oral 10 mg/kg, 3-4 days): 20% | decrease in total lipids ([4]; daily oral 10 mg/kg, 3-4 days): 20%

Cl.OCCNCCOc1ccc(Oc2ccc(Cl)cc2)cc1 [CRL 40,295, N-Hydroxyethyl-2-[4-(4-chlorophenoxy)-phenoxy]-1-ethylamine hydrochloride]
Anti-aggregation action ([5]; oral 100 mg/kg for 4 days): +++ | Anti-aggregation action ([5]; oral 200 mg/kg for 4 days): +++ | change in vivo at 100 mg/kg ([8]; read-out: Cholesterol (change)): -32% | change in vivo at 100 mg/kg [8, 13]: -19% | change in vivo at 200 mg/kg ([8]; read-out: Cholesterol (change)): -37% | change in vivo at 200 mg/kg [8, 13]: -28% | tolerance in man (Clinical tests in man; [14]): well tolerated | solubility [6]: 200 mg/mL

Cl.NCCOc1ccc(Oc2ccc(Cl)cc2)cc1 [CRL 40,317, 2-[4-(4-Chlorophenoxy)-phenoxy]-ethylamine hydrochloride]
Anti-aggregation action ([5]; oral 100 mg/kg for 4 days): + | change in vivo at 100 mg/kg [8, 13]: -37% | tolerance in man (Clinical tests in man; [14]): well tolerated | solubility in water (in words) [6]: soluble in water

O=C(CSc1ccc(Sc2ccc(Cl)cc2)cc1)OCCSCCCCCCCCCCSCCOC(=O)CSc1ccc(Sc2ccc(Cl)cc2)cc1 [CRL 40,394, 3,14-Dithia-1,16-hexadecyl di-[p-(p-chlorophenylthio)-phenylthio-acetate]]
inhibition in vivo at 50 mg/kg ([3]; po, 120 h, 50 mg/kg, 5 days, read-out: reduction in the cholesterol): 16% | inhibition in vivo at 50 mg/kg ([3]; po, 120 h, 50 mg/kg, 5 days, read-out: reduction in the lipids): 33%

CC(C)(Sc1ccc(Sc2ccc(Cl)cc2)cc1)C(=O)OCCSCCCCCCCCCCSCCOC(=O)C(C)(C)Sc1ccc(Sc2ccc(Cl)cc2)cc1 [CRL 40,402, 3,14-Dithia-1,16-hexadecyl di-{2-[p-(p-chlorophenylthio)-phenylthio]-2-methylpropionate}]
inhibition at 100 mg/kg [2]: 25% | inhibition in vivo at 20 mg/kg [4, 11]: 14% | inhibition in vivo at 20 mg/kg [4, 12]: 17% | cholesterol content and lipids content (in words) ([4]; oral 10, 20 and 50 mg/kg, 3 to 5 days): a reduction in the cholesterol content and lipids content is observed
